{
  "source": "paper PMC6089211",
  "about": "“Expression and purification of human diacylglycerol kinase α from baculovirus-infected insect cells for structural studies” (PeerJ, 2018)",
  "target": "T1, diacylglycerol kinase α (DGKα) (Homo sapiens, UniProt P23743)",
  "T1 construct": "gene DGKA; full-length DGKα (aa 1–735), N-terminal His×6 tag, Sf9-expressed",
  "T1 sequence (P23743 whole entry, the tested form may be a part)": "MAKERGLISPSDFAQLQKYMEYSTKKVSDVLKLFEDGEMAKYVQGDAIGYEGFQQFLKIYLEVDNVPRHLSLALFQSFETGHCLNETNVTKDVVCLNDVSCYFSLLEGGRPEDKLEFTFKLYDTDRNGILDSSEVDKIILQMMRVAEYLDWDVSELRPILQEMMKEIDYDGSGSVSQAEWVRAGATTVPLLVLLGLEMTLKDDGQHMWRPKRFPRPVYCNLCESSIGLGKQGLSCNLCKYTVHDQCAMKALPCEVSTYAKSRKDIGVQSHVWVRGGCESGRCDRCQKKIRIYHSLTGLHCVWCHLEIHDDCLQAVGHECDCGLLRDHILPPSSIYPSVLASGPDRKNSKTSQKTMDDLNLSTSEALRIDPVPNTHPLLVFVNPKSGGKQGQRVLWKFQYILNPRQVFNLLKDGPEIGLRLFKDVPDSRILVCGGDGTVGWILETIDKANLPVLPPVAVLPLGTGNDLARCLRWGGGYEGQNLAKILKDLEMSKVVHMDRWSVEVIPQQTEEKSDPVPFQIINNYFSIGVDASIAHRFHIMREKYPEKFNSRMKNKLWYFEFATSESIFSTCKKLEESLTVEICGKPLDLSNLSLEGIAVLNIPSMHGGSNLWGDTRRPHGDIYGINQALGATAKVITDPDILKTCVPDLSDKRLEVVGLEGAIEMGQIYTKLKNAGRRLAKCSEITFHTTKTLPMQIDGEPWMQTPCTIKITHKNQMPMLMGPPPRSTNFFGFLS",
  "experiment": "Michaelis–Menten kinetics, mixed micelle ADP-Glo assay (Km)",
  "type": "biochemical",
  "data": [
    {"smiles": "CCCCCCCC/C=C\\CCCCCCCC(=O)OC[C@H](CO)OC(=O)CCCCCCC/C=C\\CCCCCCCC", "note": "[1,2-dioleolyl-sn-glycerol]", "values": [
      {"measurement": "Km", "result": "1.06 ± 0.21", "unit": "mol%"}
    ]}
  ]
}
